Among the data in PMC12797170, “Potent Competitive Inhibitors of Ecto-5′-nucleotidase (CD73) based on 6‑(Het)aryl-7-deazapurine Ribonucleoside 5′‑O‑Bisphosphonates” (ACS Pharmacology & Translational Science, 2025) are cytokine rescue efficacy values, retold here.

The experiment relates to CD8+ T cells. Kind of experiment: CD8+ T cell activation assay (CD25, IFN-γ, granzyme B). Format: cell-based, human. The conditions noted are these: granzyme B and IFN-γ, 60 h. The method, then: 6 CD73 inhibition partially reverses the immunosuppressive effect of adenosine generated from AMP in CD8 ^ + T cells. CD8^+ T cells were activated using CD3/CD28 activation beads in the presence of 2.5 μM EHNA, with or without 1 mM AMP and CD73 inhibitors (500 nM or 50 nM). A. CD25 expression. The percentage of CD8^+ T cells expressing the activation marker CD25 was measured by flow cytometry 60 h after activation. Data represent technical triplicates. B. Cytokine secretion. Granzyme B and IFN-γ levels in the culture supernatant were quantified by ELISA 60 h after activation. The data represent technical duplicates from two independently treated wells.
Peripheral blood was obtained from healthy donors at the Military University Hospital Prague, following informed consent. CD8+ T cells were enriched using the RosetteSep Human CD8+ T Cell Enrichment Cocktail ([…] Technologies) according to the manufacturer’s instructions and subsequently isolated by density gradient centrifugation using SepMate tubes ([…] Technologies). Residual red blood cells were lysed using a red blood cell lysis buffer (155 mM NH4Cl, 12 mM NaHCO3, 0.1 mM EDTA, pH = 7.1–7.4). The isolated CD8+ T cells were resuspended in complete RPMI and counted using an automated cell counter.
CD8+ T cells were seeded at 5 × 10^4 cells/well in 50 μL of complete RPMI in a flat-bottom 96-well plate. […] This was followed by the addition of 10 μL of a CD73 inhibitor at either 5 μM or 500 nM (experimental wells) or 10 μL of complete RPMI (control wells). Subsequently, 20 μL of 5 mM AMP was added to all wells except those serving as controls for maximal T cell activation. […]
Following incubation, supernatants were collected for quantification of IFN-γ and granzyme B using ELISA. […] Finally, stained cells were washed and analyzed using a BD LSRFortessa flow cytometer. Data were processed and analyzed using FlowJo software (version 10.8.1) and GraphPad Prism 10.
Secretion of IFN-γ and granzyme B was quantified using Human IFN-γ DuoSet ELISA and Human Granzyme B DuoSet ELISA (R&D Systems) according to the manufacturer’s instructions. […]

As for `Cc1nc(-c2ccc3ccccc3c2)c2ccn([C@@H]3O[C@H](COP(=O)(O)CP(=O)(O)O)[C@@H](O)[C@H]3O)c2n1` [18E.7], the cytokine rescue efficacy result is listed as “weakest effects”.

For the molecule `Cc1nc(-c2cccc3ccccc23)c2ccn([C@@H]3O[C@H](COP(=O)(O)CP(=O)(O)O)[C@@H](O)[C@H]3O)c2n1` [18E.6], the cytokine rescue efficacy result is on record as “weakest effects”.
